Data taken from patent US20210062263A1, “A CLINICAL […]” (priority 2016, published 2021).

Columns and labels:
CD45+ cells = assay: Immunohistochemical analysis of leukocyte infiltration (CD45+ cells); type: in vivo, mice
Source text: CD45, also known as leukocyte common antigen (LCA), was used to detect infiltrating leukocytes as a marker of inflammation (Hermiston et al. (2003) Annul Rev Immunol 21:107-137). Five micron thick sections were cut and placed on Menzel-Glaser Polysine (Registered Trade Mark) slides (Thermo Scientific), air-dried and stored at room temperature. Slides were stained using an automated system (DAKO Autostainer Plus), at room temperature; sections were rehydrated and antigen retrieved with the Dako buffers citrate pH6.1. Slides were peroxidase-blocked in 3% v/v hydrogen peroxide (H2O2) in methanol for 10 mins. They were then blocked with CAS-Block (Invitrogen, CA, USA) for 10 minutes, and then incubated with primary antibody (CD45 biotinylated rat anti-mouse antibody, 1:200) for 20 min. Vectastain ABC kit (Vector Labs, Burlingame, Calif.) was subsequently applied for 30 minutes and further colorimetric detection was completed with diaminobenzidine (DAB) for 5 minutes. Sections were counterstained with haematoxylin and slides coverslipped under DePeX.
Leukocyte infiltration was assessed by calculating the average number of CD45+ cells in four random high-power fields (HPF) per tissue section from each group. Data presented reflect the mean total cell count per field from the wound area at days 3 and 5 post-wounding.

[1] = Serum testosterone levels (RIA) in wounded male mice with testosterone implants; type: in vivo; details: for Serum Testosterone: Castrated + T males
Experimental: Six to nine week-old male Balb/cJASMU mice obtained from the Monash University Animal Services, Monash University, Clayton, Victoria, Australia, were housed prior to and during experiments under the following conditions: temperature range 21° C. to 24° C.; light cycle 12 hours light: 12 hours dark. All mice had access to food and water ad libitum.
Six week-old male mice were castrated under anesthesia three weeks prior to the studies on wound healing. The testes were gently pushed through the inguinal canal into the abdominal cavity and exposed through a small (0.5 cm) ventral midline abdominal incision. Each testis was gently dissected from its epididymis and removed after ligation of the testicular vasculature. All incisions were closed using two interrupted 5/0 silk sutures (Johnson & Johnson Medical, NSW, Australia).
(§1) Implants were prepared by cutting medical grade Silastic (polydimethylsiloxane) tubing (1.5 mm inner diameter, 2.3 mm outer diameter, Aunet Pty Ltd, WA, Australia) to the desired length (1 cm long) and sealing one end with Multi-Purpose Sealant (Dow Corning RTV Sealant). After 24 hours each tube was packed with either crystalline testosterone (Sigma #T-1500) or left empty (vehicle implant). The open end was then sealed and implants were allowed to dry for at least 24 hours prior to surgical implantation. The implant size was considered to be the length of tubing containing testosterone. Prior to subcutaneous insertion, implants were sterilized in absolute ethanol for 10 minutes which also removed any androgen adhering to its external surface. Each testosterone or vehicle implant was inserted subcutaneously via a 5-mm nape incision in intact and castrated male mice three weeks before the wound healing experiments and the incision site was closed with 5/0 sutures.
(§2) Under anesthesia, the dorsal flanks of each 9 weeks old mouse (n=6/group) were carefully shaved and cleansed with 70% v/v ethanol. To create wounds, full-thickness, parasagittal linear incisions (1 cm long) were made through the skin and underlying the panniculus carnosus muscle on each flank and each wound was closed using two 5/0 silk sutures placed 3 mm from each end of the wound. Post operatively, all animals received analgesia to minimize pain, were allowed to recover on a heated pad and then housed in groups of four animals per cage. Incisions were examined and assessed on days 3, 5, 7 and post-wounding.
Blood samples were collected between 10:00 and 10:30 am by cardiac puncture at different time points (0d, 3d, 5d, 7d or 14d) according to the experimental protocol. The samples were allowed to coagulate for 30 minutes then centrifuged at 10,000 g for 10 minutes to collect serum which was stored at −20° C. until assayed.
Serum testosterone levels were measured using a direct radioimmunoassay (RIA) testosterone kit (IM1119—Immunotech, Marseilles, France) according to the manufacturer's instructions, using I^125-labeled testosterone as a radioactive tracer. The antibody used in the immunoassay is highly specific for testosterone with extremely low cross-reactivity (<0.75%) for related molecules such as 5a-dihydrotestosterone or […]. The assay sensitivity for serum testosterone was 15.63 pg/ml and the intra-assay variation was 7.9%. All samples from one experiment were measured in the same assay.

IL-6 = assay: Cutaneous IL-6 levels (ELISA) after wounding; type: in vivo, mice
Experimental: (§3) Frozen samples of wounded and unwounded skin were homogenized (Janke & Kunkel Ultraturrax T25 homogenizer, IKA Labortechnik, Staufen, Germany) in 1% v/v protease inhibitor (Calbiochem, San Diego, Calif.) and the homogenates were centrifuged at 4° C. to remove debris prior to assay.
(§4) Cutaneous levels of IL-6 and TNF-α were measured in skin samples using ELISAs according to the manufacturer's instructions (R&D Systems Inc, MN, USA). The sensitivity of the IL-6 ELISA was 5.97 pg/ml; the intra-assay variation was of 3.4% and the inter-assay variation was 4.1%. Mouse recombinant was used as a standard for the TNF-α assay; the sensitivity of the ELISA was 9.04 pg/ml; the intra-assay variation was of 12.8% and the inter-assay variation was 12.7%. The concentrations are expressed per mg of tissue (wet weight).

dorsal skin wound = assay: Macroscopic evaluation of dorsal skin wounds; type: in vivo, mice
Experimental: as §1
as §2, with “Post operatively, all animals received analgesia to minimize pain, were allowed to recover on a heated pad and then housed in groups of four animals per cage.” left out
Digital images of each dorsal skin wound were obtained with a standardized focal distance, aperture and exposure time using a Nikon D5000 camera (Nikon, Tokyo, Japan) immediately after the initial incision and at 3, 5, 7 and 14 days post-wounding. Wound areas were measured within the wound margins and the pixel areas were calculated using Adobe Photoshop CS5 (version 12.0, Adobe Systems Inc). The area of erythema was measured in all groups at 3 days and 5 days post-wounding and the area of the wound was measured in all groups at all time-points.

TNF-α = assay: Cutaneous TNF-α levels (ELISA) after wounding; type: in vivo, mice
Experimental: as §3, §4

C[C@]12CC[C@H]3[C@@H](CCC4=CC(=O)CC[C@@]43C)[C@@H]1CC[C@@H]2O [testosterone]
number of CD45+ cells (CD45+ cells; castrated group with testosterone replaced vs castrated group, days 3 and 5 post-wounding): significantly increased
leukocyte migration and infiltration to the wound site (summary) (CD45+ cells; male mice): increased migration and infiltration of leukocytes
Serum Testosterone ([1]; 0 d): 5.7 ± 0.8 ng/mL
Serum Testosterone ([1]; 3 d): 5.4 ± 0.5 ng/mL
Serum Testosterone ([1]; 5 d): 5.9 ± 0.4 ng/mL
Serum Testosterone ([1]; 7 d): 5.2 ± 0.5 ng/mL
Serum Testosterone ([1]; 14 d): 4.5 ± 0.1 ng/mL
serum testosterone levels (in words) ([1]; castrated males, testosterone replacement): back to control levels
concentration at 0 d ([1]; male, Balb/cJASMU, mouse, serum, subcutaneous, 1 cm Silastic implant packed with crystalline testosterone, Intact + T males, 0 d): 5.3 ± 0.4 ng/mL
concentration at 3 d ([1]; male, Balb/cJASMU, mouse, serum, subcutaneous, 1 cm Silastic implant packed with crystalline testosterone, Intact + T males, 3 d): 5.9 ± 0.4 ng/mL
concentration at 5 d ([1]; male, Balb/cJASMU, mouse, serum, subcutaneous, 1 cm Silastic implant packed with crystalline testosterone, Intact + T males, 5 d): 7.8 ± 0.9 ng/mL
concentration at 7 d ([1]; male, Balb/cJASMU, mouse, serum, subcutaneous, 1 cm Silastic implant packed with crystalline testosterone, Intact + T males, 7 d): 6.7 ± 0.4 ng/mL
concentration at 14 d ([1]; male, Balb/cJASMU, mouse, serum, subcutaneous, 1 cm Silastic implant packed with crystalline testosterone, Intact + T males, 14 d): 6.3 ± 0.3 ng/mL
cutaneous IL-6 relative to castrated group (IL-6; castrated males, testosterone replacement, day 3 post-wounding): twice
cutaneous IL-6 relative to intact male group (IL-6; intact males treated with testosterone, day 3 post-wounding): almost twice
basal IL-6 levels in skin (IL-6; intact males treated with testosterone, unwounded skin): increased basal IL-6 levels
wound area (dorsal skin wound; castrated animals treated with testosterone vs vehicle, days 3 and 5 post-wounding): increased wound area
scabs on wound surface (dorsal skin wound; castrated males, testosterone replaced): scabs were observed at both days 3 and 5
area of erythema (dorsal skin wound; castrated+T males, day 3 post-wounding): 0.42±0.03 cm2
TNF-α skin levels (TNF-α; castrated males, testosterone replaced vs castrated males, days 5 and 7): significantly higher
TNF-α skin levels (TNF-α; castrated males, testosterone replaced, day 7 post-wounding): significantly increased
TNF-α skin levels (TNF-α; intact males given testosterone vs intact group, day 3 post-wounding): significantly increased
